Test results as given in patent US20110305637A1, “RADIOLABELLED PDE10 LIGANDS” (Janssen Pharmaceutica N.V., priority 2009, published 2011).

How the values were obtained:
[1] = Plasma metabolite analysis; type: in vivo; settings: rat plasma, 60 min p.i.
Procedure: The metabolic stability of [^18F]B-1 was studied in normal rats by determination of the relative amounts of parent tracer and metabolites in the blood at 1 hour p.i. of the tracer. After intravenous (i.v.) administration of about 19 MBq [^18F]B-1 via tail vein under anesthesia (2.5% Isoflurane in O2 at 1 L/min flow rate), rats were sacrificed by decapitation at 60 min p.i. (n=2). Blood was collected in heparin containing tubes (4.5 mL LH PST tubes; BD vacutainer, BD, Franklin Lakes, N.J., USA) and immediately centrifuged for 10 min at 3000 rpm to separate the plasma. […] After passing through UV detector (254 nm), the HPLC eluate was collected as 1-mL fractions using an automatic fraction collector and the radioactivity of these fractions was measured in the γ-counter.
The metabolic stability was assessed in plasma collected from normal rats (n=2) 60 min post injection of [^18F]B-1 using RP-HPLC. […]
The metabolic stability of [^18F]B-2 was studied in normal rats by determination of the relative amounts of parent tracer and metabolites in the blood at 1 hour p.i. of the tracer. […] After passing through UV detector (254 nm), the HPLC eluate was collected as 1-mL fractions using an automatic fraction collector and the radioactivity of these fractions was measured in the γ-counter. […]

[2] = Brain metabolite analysis (cerebrum, cerebellum, not perfused); type: in vivo, rat; settings: 60 min p.i.
Procedure: (§1) From the same animals that were used for plasma analysis, brain was also dissected and rinsed with saline (Mini Plasco®, Braun, Melsungen, Germany) to rinse off the blood. Cerebrum and cerebellum were collected separately and homogenized in 3 mL and 2 mL of acetonitrile, respectively, for about 3 min. A volume of 1 mL of this homogenate was diluted with an equal volume of water and a part of this homogenate was filtered through 0.22 μm filter (Millex®-GV, Millipore, Ireland). About 0.5 mL of the filtrate was spiked with 5 μL of non-radioactive B-1 solution (1 mg/mL) and then injected on to HPLC, which was connected with an XBridge™ column (C18, […], 3 mm×100 mm, Waters) eluted with mixtures of 0.05 M sodium acetate buffer pH 5.5 and acetonitrile (60:40 v/v) at a flow rate of 0.8 mL/min. Similar to the plasma analysis, the HPLC eluate was collected as 1-mL fractions after passing through UV detector, and the radioactivity in the fractions was measured using the automated gamma counter.
(§2) Based on their higher hydrophilicity we can expect that these radiometabolites may not cross the blood brain barrier (BBB). However, in order to rule out the presence or entry of these metabolites to the brain, we have also analyzed cerebrum and cerebellum samples of rats after isolation and subsequent homogenization at 60 min after injection of [^18F]B-1 (n=2).
as §1, with “of non-radioactive B-2 solution (1” for “of non-radioactive B-1 solution (1”, “and acetonitrile (65:35 v/v) at” for “and acetonitrile (60:40 v/v) at”, “passing through the UV detector,” for “passing through UV detector,”
as §2, with “BBB.” for “the blood brain barrier (BBB).”, “[^18F]B-2” for “[^18F]B-1”

[18F]CCCn1cc(-c2ccncc2)c(-c2ccc(OCc3ccc4ccccc4n3)cc2)n1 [[^18F]B-1]
Relative percentage of apolar metabolite(s)/components [1]: 1.6 ± 1.5%
Relative percentage of apolar metabolite(s) ([2]; rat cerebellum): 1.4 ± 0.9%
Relative percentage of polar metabolite(s) ([2]; rat cerebellum): 15.3 ± 1.8%
Relative percentage of apolar metabolite(s) ([2]; rat cerebrum): 0.3 ± 0.0%
Relative percentage of polar metabolite(s) ([2]; rat cerebrum): 6.6 ± 2.9%
